Results on one compound are retold here after patent publication US20100166804A1, “METHODS” (priority 2007, published 2010).

For experiment [1], the system named is patients with a history of peanut allergy. Briefly: Double-blind randomized oral food challenge with peanut flour (Example 1). The class given is in vivo. The settings on record: 1 mg ketotifen orally twice daily vs placebo; oral food challenge at two, four and six weeks. As for the experimental part: (§1) To analyze hypersensitivity to an allergen, e.g., peanut, a double-blind, randomized, dose-ranging study is carried out with patients with a history of peanut allergy manifested by urticaria, angioedema, respiratory tract symptoms or hypotension generally using the methods described in Israel et al., Am. J. Respir. Crit. Care Med., (2000) 164:75-80. Eligible patients include those with serum total IgE level of 30-1000 IU/mL and/or a positive skin-prick test to peanut. Patients must have asthma condition under control with a forced expiratory volume in one second that is at least 80 percent of the predicted value. Patients may not have taken systemic corticosteroids, beta-blockers, acetylcholinesterase, aspirin, antihistamines and anti-depressants prior to and throughout the study.
Before enrollment, threshold level for reactivity to peanut allergen is confirmed by a screening double-blind, placebo-controlled oral food challenge. […] Vital signs are checked, chest auscultation is performed, and peak expiratory flow rates are monitored every 30 minutes during the food challenge and for at least 2 hours after the last dose or the abatement of any symptoms or signs. […]
(§2) Peak expiratory flow rates are monitored every 30 minutes during food challenge for at least 2 hours after the last does or abatement of any symptoms or signs. […]

For experiment [2] the test system is unchanged. The experiment can be described thus: Double-blind randomized dose-ranging oral food challenge with peanut flour (Example 3). It counts as in vivo. The settings on record: 0.5, 1 or 2 mg ketotifen orally twice daily vs placebo; oral food challenge at two, four and six weeks. As for the experimental part: as §1, with “to” for “to an allergen, e.g.,”, “take” for “have taken”, “during” for “prior to and throughout”
Before enrollment, threshold level for reactivity to peanut allergen is confirmed by a screening double-blind, placebo-controlled oral food challenge. Base line spirometry, peak expiratory flow rates and continuous cardiac monitoring is established. Vital signs are checked, chest auscultation is performed, and peak expiratory flow rates are monitored every 30 minutes during the food challenge and for at least 2 hours after the last dose or the abatement of any symptoms or signs. […]
as §2

The test system of experiment [3] is patients with a history of bee sting allergy. The experiment can be described thus: Double-blind randomized dose-ranging bee venom challenge (Example 4). The settings on record: 0.5, 1 or 2 mg ketotifen orally twice daily vs placebo; bee venom challenge at two, four and six weeks. It counts as in vivo. On the procedure: as §1, with “bee venom,” for “an allergen, e.g., peanut,”, “bee sting” for “peanut”, “bee venom.” for “peanut.”, “take” for “have taken”, “during” for “prior to and throughout”
Before enrollment, threshold level for reactivity to bee venom allergen is confirmed by a screening double-blind, placebo-controlled bee venom challenge. […] Vital signs are checked, chest auscultation is performed, and peak expiratory flow rates are monitored and bee venom specific IgE level and basal tryptase level are measured every 30 minutes during the challenge and for at least 2 hours after the last dose or the abatement of any symptoms or signs. […] The wheal size is evaluated 15 min after application. […] Patients are closely monitored for any systemic reaction. […]

The test system of experiment [4] is subjects with an allergy to peanut. The experiment can be described thus: Oral peanut tolerization therapy with concomitant ketotifen fumarate, randomized double-blind placebo-controlled (Example 5). It counts as in vivo, patients. On the procedure:
A study is performed to evaluate the dose-related effects of ketotifen fumarate on the scope and severity of allergic signs and symptoms resulting from concomitant oral peanut tolerization therapy. The study also evaluates the effects of discontinuation of ketotifen therapy on the scope and severity of allergic signs and symptoms resulting from concomitant oral peanut tolerization therapy after 12 or 16 weeks, while oral peanut tolerization therapy is continued. The study also evaluates the effects of ketotifen therapy on the scope and severity of allergic signs and symptoms resulting from concomitant oral peanut tolerization therapy when ketotifen dosing is initiated after 12 weeks of oral peanut tolerization therapy. The study generally consists of screening, baseline, treatment, and post-treatment follow-up periods, and is randomized, double-blind, placebo-controlled, and in parallel groups.
Patients selected are generally healthy subjects between the ages of 2 and 50 with an allergy to peanut which provokes signs and symptoms of an anaphylactic reaction. The patients may also have co-morbid atopic dermatitis and/or allergic rhinitis. If a patient is selected for the study, they are randomly assigned a treatment of 0.5 mg oral ketotifen fumarate, 2.0 mg oral ketotifen fumarate, or placebo (n=12 for each group).
During the treatment period, patients receive ketotifen fumarate or placebo for one week prior to tolerization therapy. At week 1, oral peanut tolerization therapy is begun with peanut flour, and safety evaluations are performed. The oral dose of peanut flour is increased at weeks 3, 5, 7, 9, 11 and 13, and safety evaluations are performed at that time.
At week 13, half of the patients in each of the ketotifen groups are switched in a double-blind fashion to placebo, and subjects in the placebo treatment group are switched in a double-blind fashion to receive 2.0 mg oral ketotifen. Patients continue in the study for an additional 4 weeks. At weeks 15 and 17, the peanut flour dose is increased, and safety evaluations are performed. […]

[5] abbreviates: patients initially receiving ketotifen, switched to placebo at week 13, final 4 weeks.

Regarding `CN1CCC(=C2c3ccccc3CC(=O)c3sccc32)CC1` [ketotifen], the “patients' threshold sensitivity to peanut upon oral ingestion (change from base line in log-transformed threshold dose of peanut flour that induced hypersensitivity)” value in experiment [1] was “significantly increase”. For the same compound, in experiment [2], the “patients' tolerance to peanut upon oral ingestion (change from base line in log-transformed threshold dose of peanut flour that induced hypersensitivity)” value is reported as “significantly increase”. In addition, the “patients' tolerance to bee venom (change from base line in log-transformed threshold dose of bee venom that induced hypersensitivity)” value in experiment [3] is listed as “significantly increase”. Besides, in experiment [4] (0.5 mg or 2.0 mg oral ketotifen fumarate vs placebo during oral peanut tolerization therapy), the “amount of peanut flour that is well-tolerated” value is given as “tolerate more peanut flour than patients in the placebo group”. In experiment [4] (setting [5]), the “escape therapy required, vs patients continuously receiving ketotifen” value is on record as “require similar escape therapy” and the “escape therapy required, vs patients continuously receiving the placebo” value was “require less escape therapy”.
